Measured values taken from patent US4761414A, “Substituted 1H-pyrimido[1,2-a-]-pyrido[3,4-e]pyrazine 6 oxides” (G. D. Searle & Co., priority 1986, dated 1988).
In brackets after ≈: the same amount, converted by molar mass.

Columns and labels:
Format in all cases: cell-based
B. fragilis NCTC 10581 = assay: MIC/MBC against Bacteroides fragilis strain A (96-well microtitre plates, anaerobic chamber); conditions: Bacteroides fragilis; for MBC: NCTC10581, 99.9% reduction in viable count; for MIC: NCTC10581, 48 h, 48 hours, 37° C., anaerobic
Experimental: (§1) The screening panel utilized in this Example consisted of 5 strains of Bacteroides fragilis. All assays were carried out in 96-well microtitre plates. If an isolate was obtained from either a culture collection or clinical source, the isolate was immediately inoculated into Wilkens-Chalgren broth (Oxoid) and incubated at 37° C. in an anaerobic chamber in an atmosphere of 85% nitrogen, 10% carbon dioxide, and 5% hydrogen for 48 hours. At the end of this time, the viable count was about 10^12 organisms/ml broth. A 1 ml aliquot of each culture was placed in an ampoule and quick frozen in acetone-dry ice mixture and stored in liquid nitrogen. When an inoculum was utilized in an assay, one of the ampoules was thawed and diluted with fresh broth to yield a suspension having a count of 5×10^5 organisms/ml. A 100 μl aliquot of this suspension was inoculated into each well of the microtitre plate. A 2 mg sample of the test compound was dissolved in 0.2 ml of a suitable solvent such as dimethylsulfoxide, polyethylene glycol 200 or methanol. […] After addition of the test solution the final inoculum level was 10^5 cells/ml. The plates were incubated for 48 hours at 37° C. in the anaerobic chamber. The Minimum Inhibitory Concentration (MIC) was read visually. The MIC is defined as the lowest concentration at which there is no detectable growth. The Minimum Bactericidal Concentration (MBC) was determined by taking 50 μl aliquot from each well and placing it in fresh medium. […] The strains of Bacteroides fragilis utilized in the above procedure are identified by letter in accordance with the following legend: |A B. fragilis NCTC 10581

B. fragilis NCTC 9343 = assay: MIC/MBC against Bacteroides fragilis strain B; conditions: for MBC: NCTC9343, 99.9% reduction in viable count; for MIC: NCTC9343, 48 h, 48 hours, 37° C., anaerobic
Experimental: as §1, with “|B” for “|A”, “9343” for “10581”

[1] = tested on: Clostridium perfringens NCTC 8237; assay: microbe, parasite or virus in culture; conditions: Clostridium perfringens, NCTC8237, Clostridium perfringens NCTC 8237; procedures of Example 40
[2] = tested on: Campylobacter fetus ss. jejuni ATCC 29428; assay: MIC vs panel of anaerobes; conditions: ATCC29428, procedures of Example 40
[3] = tested on: Bacteroides melanogenicus NCTC 9336; assay: MIC vs panel of anaerobes; conditions: NCTC9336, procedures of Example 40
Peptococcous magnus = assay: MIC vs panel of anaerobes; conditions: procedures of Example 40
Peptostreptococcus = assay: MIC vs panel of anaerobes; conditions: procedures of Example 40

Compound	MBC (B. fragilis NCTC 10581) [mg/L]	MIC (B. fragilis NCTC 10581) [mg/L]	MBC (B. fragilis NCTC 9343) [mg/L]	MIC (B. fragilis NCTC 9343) [mg/L]	MIC [1] [mg/L]	MIC [2] [mg/L]	MIC [3] [mg/L]	MIC (Peptococcous magnus) [mg/L]	MIC (Peptostreptococcus) [mg/L]
CC1(C)CN=C2C(c3ccccc3)=[N+]([O-])c3ccncc3N2C1 [Example 14, 2,3-Dihydro-2,2-dimethyl-5-phenyl-1H-pyrimido[1,2-a]pyrido[4,3-e]pyrazine 6-oxide]	12.5 (≈ 40.8 µM)	6.2 (≈ 20.2 µM)	6.2 (≈ 20.2 µM)	3.1 (≈ 10.1 µM)	25 (≈ 81.6 µM)	100 (≈ 326 µM)	100 (≈ 326 µM)	100 (≈ 326 µM)	100 (≈ 326 µM)
Cc1ccc(C2=[N+]([O-])c3cccnc3N3CC(C)(C)CN=C23)cc1 [Example 20, 2,3-Dihydro-2,2-dimethyl-5-(4-methylphenyl)-1H-pyrimido[1,2-a]pyrido[3,2-e]pyrazine 6-oxide]	< 0.8	< 0.8	6.2 (≈ 19.4 µM)	6.2 (≈ 19.4 µM)	1.5 (≈ 4.68 µM)	25 (≈ 78 µM)	50 (≈ 156 µM)	25 (≈ 78 µM)	50 (≈ 156 µM)
